Like-named read-outs stand apart in the source and are kept apart here.
Assays:
Type in all cases: cell-based
[1] = tested on: Human Intestinal Normal Cells (Cell Systems IE Cells); test: Cytotoxicity assay for human intestinal normal cells, trypan blue; settings: 3 days
Method: (§1) Each human normal cells are preliminarily seeded in 35 mm petri dishes containing Dulbecco's modified Eagle medium (DMEM) containing 20% of fetal bovine serum (FBS) in a concentration of 1×10^5/ml. The resulting cells are incubated at 36° C. for 1 day under 5% CO2, and cells are confirmed to be stuck at the bottom of the petri dishes. A racemate, α-isomer and β-isomer are each dissolved in DMSO to give solutions in concentrations of 0.5 mM, 0.05 mM, 0.005 mM and 0.0005 mM, 2 μL each of which are added to each cells. The resulting cells are incubated at 36° C. for 3 days, and viable cells are counted by using 0.25% trypan blue and viabilities are calculated. A commercially-available anticancer agent mitomycin is also examined as a control in the test against human skin normal cells, and the results are also shown in TABLE 6.

[2] = tested on: MCF-7 cells (Breast cancer cells); test: Antitumor activity against MCF-7 cells, viable cell count; settings: Homo sapiens, MCF7, 72 h
Method: (§2) PC-3 cells obtained in a similar manner in the above (1) are divided into three groups, to the first group of which is added (±)-2-(1-hydroxyethyl)-5-hydroxynaphtho[2,3-b]furan-4,9-dione (racemate) in concentrations of 0.5 mM, 0.05 mM, 0.005 mM and 0.0005 mM, to the second group of which is added an unnatural type 2-(1-hydroxyethyl)-5-hydroxynaphtho[2,3-b]furan-4,9-dione (α-isomer) in concentrations of 0.5 mM, 0.05 mM, 0.005 mM and 0.0005 mM, to the third group of which is added a natural type 2-(1-hydroxyethyl)-5-hydroxynaphtho[2,3-b]furan-4,9-dione (β-isomer) in concentrations of 0.5 mM, 0.05 mM, 0.005 mM and 0.0005 mM, and to the fourth group of which is added mitomycin as a control in concentrations of 0.5 mM, 0.05 mM, 0.005 mM and 0.0005 mM. These groups are incubated at 36° C. for 3 days, and viable cells are counted and viability is calculated.
Antitumor activity is examined on MCF-7 cells in a similar manner as in the above (2).

PC-3 cells = test: Antitumor activity against PC-3 cells (2), viable cell count; settings: Homo sapiens
Method: (§3) PC-3 cells (manufactured by Department of Laboratory Products of Dainippon Pharm. Co. Ltd.) are preliminarily seeded in 35 mm petri dishes containing Dulbecco's modified Eagle medium (DMEM) containing 20% of fetal bovine serum (FBS) in a concentration of 1×10^5/ml. The resulting cells are incubated at 36° C. for 1 day under 5% CO2, and cells are confirmed to be stuck at the bottom of the petri dishes. The resulting PC-3 cells are divided into […], to the first group of which is added (±)-2-(1-hydroxyethyl)-5-hydroxynaphtho[2,3-b]furan-4,9-dione (racemate) in concentrations of 0.5 mM, 0.05 mM and 0.005 mM, and to the second group of which is added adriamycin (Wakenyaku Co. Ltd.) as a control in concentrations of 0.5 mM, 0.05 mM and 0.005 mM. These groups are incubated at 36° C. for 3 days, and viable cells are counted and viability is calculated.
as §2

[3] = tested on: Human Skin Normal Cells (Cell System Fb cells); test: Cytotoxicity assay for human skin normal cells, trypan blue; settings: for Viability %: human skin normal cells, 3 days
Method: as §1

[4] = tested on: A-549 cells (Lung cancer cells); test: Antitumor activity against A-549 cells, viable cell count; settings: Homo sapiens, A549, 72 h
Method: as §2
Antitumor activity is examined on A-549 cells in a similar manner as in the above (2).

[5] = tested on: Human Lung Normal Cells (MRC-5); test: Cytotoxicity assay for human lung normal cells, trypan blue; settings: 3 days
Method: as §1

[6] = tested on: Human Hepatic Normal Cells (Cell Systems Hc Cells); test: Cytotoxicity assay for human hepatic normal cells, trypan blue; settings: 3 days
Method: as §1

[7] = tested on: PC-3 cells (Prostate cancer cells); test: Antitumor activity against PC-3 cells (1), viable cell count; settings: Homo sapiens, PC-3, 72 h
Method: as §3

Row | SMILES | Viability % ([1]; 0.0005 mM) [%] | Viability % ([1]; 0.005 mM) [%] | Viability % ([1]; 0.05 mM) [%] | Viability % ([1]; 0.5 mM) [%] | viability at 0.5 µM [2] [%] | viability at 5 µM [2] [%] | viability at 50 µM [2] [%] | viability at 500 µM [2] [%] | viability at 0.5 µM (PC-3 cells; PC-3, 72 h) [%] | viability at 5 µM (PC-3 cells; PC-3, 72 h) [%] | viability at 50 µM (PC-3 cells; PC-3, 72 h) [%] | viability at 500 µM (PC-3 cells; PC-3, 72 h) [%] | Viability % ([3]; 0.0005 mM) [%] | Viability % ([3]; 0.005 mM) [%] | Viability % ([3]; 0.05 mM) [%] | Viability % ([3]; 0.5 mM) [%] | viability at 0.5 µM [4] [%] | viability at 5 µM [4] [%] | viability at 50 µM [4] [%] | viability at 500 µM [4] [%] | also measured
1 | CC(O)c1cc2c(o1)C(=O)c1cccc(O)c1C2=O (single isomer, unassigned; isomer 2) [β-Isomer, 2-(1-hydroxyethyl)-5-hydroxynaphtho[2,3-b]furan-4,9-dione] | 100 | 70 | 50 | 30 | 70 | 50 | 20 | 0 | 40 | 10 | 0 | 0 | 100 | 50 | 20 | 10 | 60 | 30 | 10 | 0 | Viability % ([5]; 0.0005 mM): 100%; Viability % ([5]; 0.005 mM): 70%; Viability % ([5]; 0.05 mM): 40%; Viability % ([5]; 0.5 mM): 20%; Viability % ([6]; 0.0005 mM): 100%; Viability % ([6]; 0.005 mM): 50%; Viability % ([6]; 0.05 mM): 20%; Viability % ([6]; 0.5 mM): 10%
2 | CC(O)c1cc2c(o1)C(=O)c1cccc(O)c1C2=O (single isomer, unassigned; isomer 2) [α-Isomer, 2-(1-hydroxyethyl)-5-hydroxynaphtho[2,3-b]furan-4,9-dione] | 100 | 80 | 60 | 40 | 90 | 60 | 30 | 0 | 60 | 30 | 0 | 0 | 100 | 70 | 40 | 30 | 70 | 40 | 10 | 0 | Viability % ([5]; 0.0005 mM): 100%; Viability % ([5]; 0.005 mM): 80%; Viability % ([5]; 0.05 mM): 50%; Viability % ([5]; 0.5 mM): 30%; Viability % ([6]; 0.0005 mM): 100%; Viability % ([6]; 0.005 mM): 70%; Viability % ([6]; 0.05 mM): 40%; Viability % ([6]; 0.5 mM): 20%
3 | CO[C@@]12[C@H](COC(N)=O)C3=C(C(=O)C(C)=C(N)C3=O)N1C[C@@H]1N[C@@H]12 [Mitomycin, mitomycin, reference compound] |  |  |  |  |  |  |  |  |  |  |  |  | 60 | 30 | 0 | 0 |  |  |  |  | viability at 0.5 µM ([2]; MCF-7 cells, 0.0005 mM, 3 days, read-out: Viability %): 60%; viability at 5 µM ([2]; MCF-7 cells, 0.005 mM, 3 days, read-out: Viability %): 30%; viability at 50 µM ([2]; MCF-7 cells, 0.05 mM, 3 days, read-out: Viability %): 10%; viability at 500 µM ([2]; MCF-7 cells, 0.5 mM, 3 days, read-out: Viability %): 0%; viability at 0.5 µM (PC-3 cells; 72 h, PC-3 cells, 0.0005 mM, 3 days, read-out: Viability %): 40%; viability at 5 µM (PC-3 cells; 72 h, PC-3 cells, 0.005 mM, 3 days, read-out: Viability %): 10%; viability at 50 µM (PC-3 cells; 72 h, PC-3 cells, 0.05 mM, 3 days, read-out: Viability %): 0%; viability at 500 µM (PC-3 cells; 72 h, PC-3 cells, 0.5 mM, 3 days, read-out: Viability %): 0%; toxicity to normal cells ([3]; summary in words of TABLE 6): very strong toxicity; viability at 0.5 µM ([4]; A-549 cells, 0.0005 mM, 3 days, read-out: Viability %): 50%; viability at 5 µM ([4]; A-549 cells, 0.005 mM, 3 days, read-out: Viability %): 10%; viability at 50 µM ([4]; A-549 cells, 0.05 mM, 3 days, read-out: Viability %): 0%; viability at 500 µM ([4]; A-549 cells, 0.5 mM, 3 days, read-out: Viability %): 0%
4 | COc1cccc2c1C(=O)c1c(O)c3c(c(O)c1C2=O)C[C@@](O)(C(=O)CO)C[C@@H]3O[C@H]1C[C@H](N)[C@H](O)[C@H](C)O1 [Adriamycin, adriamycin, reference compound] |  |  |  |  |  |  |  |  |  |  |  |  |  |  |  |  |  |  |  |  | viability at 5 µM [7]: 42%; viability at 50 µM [7]: 0%; viability at 500 µM [7]: 0%
5 | CC(O)c1cc2c(o1)C(=O)c1cccc(O)c1C2=O (racemic) [Racemate, (±)-2-(1-hydroxyethyl)-5-hydroxynaphtho[2,3-b]furan-4,9-dione] | 100 | 80 | 60 | 40 | 90 | 50 | 20 | 0 | 50 | 30 | 0 | 0 | 100 | 80 | 50 | 20 | 70 | 50 | 10 | 0 | Viability % ([5]; 0.0005 mM): 100%; Viability % ([5]; 0.005 mM): 80%; Viability % ([5]; 0.05 mM): 60%; Viability % ([5]; 0.5 mM): 30%; Viability % ([6]; 0.0005 mM): 100%; Viability % ([6]; 0.005 mM): 80%; Viability % ([6]; 0.05 mM): 60%; Viability % ([6]; 0.5 mM): 30%; viability at 5 µM [7]: 50%; viability at 50 µM [7]: 0%; viability at 500 µM [7]: 0%

From US7910752B2, “Anticancer compound, intermediate therefor, and processes for producing these” (Taheebo Japan Co., Ltd., priority 2005, dated 2011)
